In brackets after ≈: the same amount, converted by molar mass.
Tests used:
[1] = Apparent permeability of compound across apical to basal side in human Caco2 cells at 10 uM incubated for 120 mins by LC-MS/MS analysis; conditions: Caco-2
[2] = Apparent permeability of compound across basal to apical side in human Caco2 cells at 10 uM incubated for 120 mins by LC-MS/MS analysis; conditions: Caco-2
[3] = Solubility of compound in PBS at pH 7.4 incubated for 2 hrs by LC-MS/MS analysis; assay type: physicochemical
[4] = Unbound fraction in mouse plasma; assay type: ADME, cell-free
[5] = Stability in rat liver microsomes assessed as half life; assay type: ADME, Microsome
[6] = Stability in dog liver microsomes assessed as half life; assay type: ADME, Canis lupus familiaris, Microsome
[7] = Stability in human hepatocytes assessed as half life; assay type: ADME, cell-based, Hepatocyte
[8] = Stability in mouse hepatocytes assessed as half life; assay type: ADME, cell-based, Hepatocyte
Cytochrome P450 1A2 = target: T1, Cytochrome P450 1A2 (Homo sapiens, UniProt P05177); assay: Inhibition of CYP1A2 (unknown origin); assay type: ADME
T1 sequence (P05177 whole entry): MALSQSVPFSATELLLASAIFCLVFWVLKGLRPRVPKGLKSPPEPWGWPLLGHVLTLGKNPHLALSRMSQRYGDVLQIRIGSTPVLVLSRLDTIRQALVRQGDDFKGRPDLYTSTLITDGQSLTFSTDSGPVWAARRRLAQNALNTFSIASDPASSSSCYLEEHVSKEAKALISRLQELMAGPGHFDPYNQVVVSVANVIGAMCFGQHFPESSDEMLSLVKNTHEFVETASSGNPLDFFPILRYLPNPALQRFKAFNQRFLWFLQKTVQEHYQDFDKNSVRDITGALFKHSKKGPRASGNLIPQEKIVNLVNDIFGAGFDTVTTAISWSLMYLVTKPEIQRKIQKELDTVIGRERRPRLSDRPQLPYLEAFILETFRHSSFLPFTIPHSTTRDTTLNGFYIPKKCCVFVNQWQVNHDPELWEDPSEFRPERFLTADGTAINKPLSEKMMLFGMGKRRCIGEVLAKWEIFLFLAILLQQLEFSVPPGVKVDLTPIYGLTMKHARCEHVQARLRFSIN

Cytochrome P450 2B6 = target: T2, Cytochrome P450 2B6 (Homo sapiens, UniProt P20813); assay: Inhibition of CYP2B6 (unknown origin); assay type: ADME
T2 sequence (P20813 whole entry): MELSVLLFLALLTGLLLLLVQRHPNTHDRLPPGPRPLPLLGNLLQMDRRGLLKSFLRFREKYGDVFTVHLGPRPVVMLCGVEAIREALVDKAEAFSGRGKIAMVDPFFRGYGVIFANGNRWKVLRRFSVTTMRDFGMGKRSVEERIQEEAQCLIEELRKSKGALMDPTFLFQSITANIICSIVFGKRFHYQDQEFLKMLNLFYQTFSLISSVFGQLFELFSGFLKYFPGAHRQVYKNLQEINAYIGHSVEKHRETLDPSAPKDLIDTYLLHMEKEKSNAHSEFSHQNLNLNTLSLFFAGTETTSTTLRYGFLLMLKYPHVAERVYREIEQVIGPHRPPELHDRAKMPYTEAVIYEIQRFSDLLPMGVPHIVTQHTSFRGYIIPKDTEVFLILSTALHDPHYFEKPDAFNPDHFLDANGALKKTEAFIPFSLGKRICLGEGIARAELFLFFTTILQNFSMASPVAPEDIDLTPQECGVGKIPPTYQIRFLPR

Cytochrome P450 2C8 = target: T3, Cytochrome P450 2C8 (Homo sapiens, UniProt P10632); assay: Inhibition of CYP2C8 (unknown origin); assay type: ADME
T3 sequence (P10632 whole entry): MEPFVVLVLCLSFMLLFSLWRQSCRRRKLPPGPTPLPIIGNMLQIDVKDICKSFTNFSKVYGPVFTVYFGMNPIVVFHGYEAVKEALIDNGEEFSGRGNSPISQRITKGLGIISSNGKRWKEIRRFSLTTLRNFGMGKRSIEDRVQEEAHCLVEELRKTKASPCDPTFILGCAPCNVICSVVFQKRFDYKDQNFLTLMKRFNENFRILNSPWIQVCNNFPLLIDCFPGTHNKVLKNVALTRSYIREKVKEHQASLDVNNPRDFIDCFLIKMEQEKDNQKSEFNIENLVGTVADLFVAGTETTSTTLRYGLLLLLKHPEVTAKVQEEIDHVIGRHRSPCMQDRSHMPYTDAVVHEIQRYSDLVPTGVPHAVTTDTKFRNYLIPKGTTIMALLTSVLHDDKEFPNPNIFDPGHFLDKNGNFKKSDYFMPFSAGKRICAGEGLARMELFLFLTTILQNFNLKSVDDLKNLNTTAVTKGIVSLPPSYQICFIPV

Cytochrome P450 2C19 = Cytochrome P450 2C19 (Homo sapiens, UniProt P33261); assay: Inhibition of CYP2C19 (unknown origin); assay type: ADME
Sequence of Cytochrome P450 2C19 (P33261 whole entry): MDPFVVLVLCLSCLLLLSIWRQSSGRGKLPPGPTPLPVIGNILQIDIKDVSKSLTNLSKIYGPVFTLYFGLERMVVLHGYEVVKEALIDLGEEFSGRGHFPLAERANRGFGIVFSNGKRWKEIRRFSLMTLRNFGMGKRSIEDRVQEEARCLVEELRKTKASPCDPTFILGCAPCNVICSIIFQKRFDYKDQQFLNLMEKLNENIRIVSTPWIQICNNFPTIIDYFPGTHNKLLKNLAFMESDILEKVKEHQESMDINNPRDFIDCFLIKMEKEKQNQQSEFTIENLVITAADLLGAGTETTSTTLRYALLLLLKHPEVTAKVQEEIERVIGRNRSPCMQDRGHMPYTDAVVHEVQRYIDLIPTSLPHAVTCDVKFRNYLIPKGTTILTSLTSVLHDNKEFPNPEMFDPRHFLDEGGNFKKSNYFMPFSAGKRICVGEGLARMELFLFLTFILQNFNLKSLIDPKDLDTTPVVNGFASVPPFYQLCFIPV

Cytochrome P450 2D6 = Cytochrome P450 2D6 (Homo sapiens, UniProt P10635); assay: Inhibition of CYP2D6 (unknown origin); assay type: ADME
Sequence of Cytochrome P450 2D6 (P10635 whole entry): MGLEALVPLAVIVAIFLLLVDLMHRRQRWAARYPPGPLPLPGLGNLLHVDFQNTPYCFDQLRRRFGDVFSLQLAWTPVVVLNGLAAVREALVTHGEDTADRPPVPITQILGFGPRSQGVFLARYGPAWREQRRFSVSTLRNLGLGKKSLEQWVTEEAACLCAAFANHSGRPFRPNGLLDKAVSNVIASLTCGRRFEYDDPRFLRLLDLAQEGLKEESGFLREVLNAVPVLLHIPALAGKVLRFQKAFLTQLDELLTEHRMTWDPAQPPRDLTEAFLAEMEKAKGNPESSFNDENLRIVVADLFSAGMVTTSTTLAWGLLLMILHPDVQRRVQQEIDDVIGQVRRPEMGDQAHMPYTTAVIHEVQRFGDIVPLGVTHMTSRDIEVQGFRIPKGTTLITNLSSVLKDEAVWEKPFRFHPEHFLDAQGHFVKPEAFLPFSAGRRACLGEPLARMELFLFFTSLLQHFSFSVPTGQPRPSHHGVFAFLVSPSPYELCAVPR

[9] = Clearance in ICR mouse at 1 mg/kg, iv; assay type: ADME, organism-based; conditions: in vivo
[10] = Volume of distribution at steady state in ICR mouse at 1 mg/kg, iv; assay type: ADME, organism-based; conditions: in vivo, read-out: Vdss
[11] = AUClast in ICR mouse at 50 mg/kg, po; assay type: ADME, organism-based; design: dose 50 mg/kg, route po; conditions: in vivo
[12] = Tmax in ICR mouse at 50 mg/kg, po; assay type: ADME, organism-based; conditions: in vivo
[13] = Oral bioavailability in ICR mouse at 50 mg/kg; assay type: ADME, organism-based; conditions: in vivo
[14] = Volume of distribution at steady state in Sprague-Dawley rat at 1 mg/kg, iv; assay type: ADME, organism-based; conditions: in vivo, read-out: Vdss
[15] = Tmax in Sprague-Dawley rat at 50 mg/kg, po; assay type: ADME, organism-based; conditions: in vivo
[16] = Clearance in Beagle dog at 3 mg/kg, iv; assay type: ADME, organism-based, Canis lupus familiaris; conditions: in vivo
[17] = AUClast in Beagle dog at 3 mg/kg, iv; assay type: ADME, organism-based, Canis lupus familiaris; design: dose 3 mg/kg, route iv; conditions: in vivo
[18] = Volume of distribution at steady state in Beagle dog at 3 mg/kg, iv; assay type: ADME, organism-based, Canis lupus familiaris; conditions: in vivo, read-out: Vdss
[19] = Tmax in Beagle dog at 10 mg/kg, po; assay type: ADME, organism-based, Canis lupus familiaris; conditions: in vivo
[20] = Clearance in Cynomolgous monkey at 1 mg/kg, iv; assay type: ADME, organism-based, Macaca fascicularis; conditions: cynomolgus monkey, in vivo
[21] = AUClast in Cynomolgous monkey at 1 mg/kg, iv; assay type: ADME, organism-based, Macaca fascicularis; design: dose 1 mg/kg, route iv; conditions: cynomolgus monkey, in vivo
[22] = Volume of distribution at steady state in Cynomolgous monkey at 1 mg/kg, iv; assay type: ADME, organism-based, Macaca fascicularis; conditions: cynomolgus monkey, in vivo, read-out: Vdss
[23] = AUClast in Cynomolgous monkey at 50 mg/kg, po; assay type: ADME, organism-based, Macaca fascicularis; design: dose 50 mg/kg, route po; conditions: cynomolgus monkey, in vivo
MDA-MB-231 [24] = assay: Antitumor activity against human MDA-MB-231 cells xenografted in humanized NCG mouse assessed as tumor growth inhibition at 10 mg/kg, IG bid measured after 22 days relative to control; assay type: functional; conditions: MDA-MB-231, po, 528 h, time 22 day, read-out: TGI
MDA-MB-231 [25] = assay: Antitumor activity against human MDA-MB-231 cells xenografted in humanized NCG mouse assessed as tumor growth inhibition at 10 mg/kg, po bid relative to control; assay type: functional; conditions: read-out: TGI
MDA-MB-231 [26] = assay: Synergistic antitumor activity against human MDA-MB-231 cells xenografted in humanized NCG mouse assessed as tumor growth inhibition at 10 mg/kg, po bid in presence of PD-1 antibody relative to control; assay type: functional; conditions: read-out: TGI

Q: Which Papp A→B at 2 h, 10 µM [1] does the source give for `Cc1cc(S(=O)(=O)N[C@H](C)C2CCN(C)CC2)ccc1NC(=O)c1ccccc1C` here?
A: The Papp A→B at 2 h, 10 µM was 3.7 ×10⁻⁶ cm/s.

Q: And the Papp B→A at 2 h, 10 µM [2]?
A: Its Papp B→A at 2 h, 10 µM is 17.2 ×10⁻⁶ cm/s.

Q: What about the solubility at 2 h [3] of the same molecule?
A: The solubility at 2 h was 254 µM (≈ 109 µg/mL).

Q: And the fraction unbound [4]?
A: The fraction unbound was 0.449.

Q: And the half-life [5]?
A: The half-life was 2.5 h.

Q: And the half-life [6]?
A: The half-life was 2.63 h.

Q: What about the half-life [7] of the same molecule?
A: Its half-life is 8.7 h.

Q: And the half-life [8]?
A: Its half-life is 43.5 h.

Q: What about the IC50 (Cytochrome P450 1A2) of the same molecule?
A: The IC50 was greater than 10 µM.

Q: And the IC50 (Cytochrome P450 2B6)?
A: The IC50 was greater than 10 µM.

Q: What about the IC50 (Cytochrome P450 2C8) of the same molecule?
A: The IC50 was greater than 10 µM.

Q: What about the IC50 (Cytochrome P450 2C19) of the same molecule?
A: Its IC50 is greater than 10 µM.

Q: What about the IC50 (Cytochrome P450 2D6) of the same molecule?
A: The IC50 was greater than 10 µM.

Q: And the clearance [9]?
A: The clearance was 24.5 mL/min/kg.

Q: And the Vd [10]?
A: The Vd was 2.2 L/kg.

Q: What about the AUC(0-t) [11] of the same molecule?
A: Its AUC(0-t) is 22100 ng·h/mL.

Q: And the Tmax [12]?
A: Its Tmax is 0.5 h.

Q: And the bioavailability [13]?
A: Its bioavailability is 65%.

Q: What about the Vd [14] of the same molecule?
A: Its Vd is 4.4 L/kg.

Q: And the Tmax [15]?
A: Its Tmax is 3.3 h.

Q: And the clearance [16]?
A: Its clearance is 14.2 mL/min/kg.

Q: And the AUC(0-t) [17]?
A: Its AUC(0-t) is 3550 ng·h/mL.

Q: And the Vd [18]?
A: Its Vd is 2.2 L/kg.

Q: What about the Tmax [19] of the same molecule?
A: The Tmax was 0.5 h.

Q: And the clearance [20]?
A: The clearance was 31.1 mL/min/kg.

Q: What about the AUC(0-t) [21] of the same molecule?
A: The AUC(0-t) was 538 ng·h/mL.

Q: What about the Vd [22] of the same molecule?
A: The Vd was 2.8 L/kg.

Q: And the AUC(0-t) [23]?
A: Its AUC(0-t) is 28900 ng·h/mL.

Q: What about the inhibition in vivo at 10 mg/kg (MDA-MB-231 [24]) of the same molecule?
A: The inhibition in vivo at 10 mg/kg was 28.3%.

Q: What about the inhibition in vivo at 10 mg/kg (MDA-MB-231 [25]) of the same molecule?
A: Its inhibition in vivo at 10 mg/kg is 47.2%.

Q: What about the inhibition in vivo at 10 mg/kg (MDA-MB-231 [26]) of the same molecule?
A: The inhibition in vivo at 10 mg/kg was 73.8%.
